Results taken from patent US9706776B2, “Pesticidally active substituted 5,5-bicyclic heterocycles with sulphur containing substituents” (Syngenta Participations AG, priority 2013, dated 2017).
Blank lines part the entries; values can stand above or below the compound they belong to.

Tests used:
[1] = test system: Spodoptera littoralis (Egyptian cotton leaf worm); test: Example B1: Spodoptera littoralis larvicide, feeding/residual contact, preventive (cotton leaf discs); assay type: in vivo; conditions: foliar, 72 h, L1 larvae, 3 days after treatment, read-out: activity (mortality, repellent effect, feeding behaviour, growth regulation)
Text: Example B1: Activity Against Spodoptera littoralis (Egyptian Cotton Leaf Worm)
(§1) (Larvicide, Feeding/Residual Contact Activity, Preventive)
Cotton leaf discs were placed on agar in a 24-well microtiter plate and sprayed with test solutions. After drying, the leaf discs were infested with 5 L1 larvae. The samples were checked for mortality, repellent effect, feeding behaviour, and growth regulation 3 days after treatment (DAT).

[2] = test system: Spodoptera littoralis (Egyptian cotton leaf worm); test: Example B2: Spodoptera littoralis systemic activity (lettuce on agar); assay type: in vivo; conditions: 120 h, 5 days after infestation, read-out: activity (mortality, repellent effect, feeding behavior, growth regulation)
Text: Example B2: Activity Against Spodoptera littoralis (Egyptian Cotton Leaf Worm)
Test compounds were applied by pipette into 24 well plates and mixed with agar. Lettuce seeds were placed on the agar and the multi well plate is closed by another plate which contains also agar. After 7 days the roots have absorbed the compound and the lettuce has grown into the lid plate. The lettuce leaves were now cut off into the lid plate. Spodoptera eggs were pipetted through a plastic stencil on a humid gel blotting paper and the plate closed with it. The samples are checked for mortality, repellent effect, feeding behavior, and growth regulation 5 days after infestation.

[3] = test system: Plutella xylostella (diamond back moth); test: Example B3: Plutella xylostella larvicide, feeding/residual contact, preventive (artificial diet); assay type: in vivo; conditions: 120 h, L2 larvae, incubation 5 days, read-out: activity (larval mortality, antifeedant, growth regulation)
Experimental: Example B3: Activity Against Plutella xylostella (Diamond Back Moth)
as §1
24-well microtiter plate (MTP) with artificial diet was treated with test solutions by pipetting. After drying, the MTPs were infested with L2 larvae (10-15 per well). After an incubation period of 5 days, samples were checked for larval mortality, antifeedant and growth regulation.

[4] = test system: Diabrotica balteata (corn root worm); test: Example B4: Diabrotica balteata larvae L2 on maize sprouts, feeding/contact, preventative; assay type: in vivo; conditions: 120 h, incubation 5 days, read-out: activity (larval mortality, growth regulation)
Experimental: Example B4: Activity Against Diabrotica Balteata (Corn Root Worm)
(Larvae L2 on Maize Sprouts, Feeding/Contact, Preventative)
Maize sprouts, placed on an agar layer in 24 well micro titer plates were treated with test solutions by spraying. After drying, the MTPs were infested with L2 larvae (6-10 per well). After an incubation period of 5 days, samples were checked for larval mortality and growth regulation.

[5] = test system: Myzus persicae (green peach aphid); test: Example B5: Myzus persicae feeding/residual contact, preventive, mixed population (sunflower leaf discs); assay type: in vivo; conditions: foliar, 144 h, 6 DAT, read-out: activity (mortality and special effects)
Experimental: Example B5: Activity Against Myzus persicae (Green Peach Aphid)
(Feeding/Residual Contact Activity, Preventive), Mixed Population
Sunflower leaf discs were placed on agar in a 24-well microtiter plate and sprayed with test solutions. After drying, the leaf discs were infested with an aphid population of mixed ages. After an incubation period of 6 DAT, samples were checked for mortality and special effects (e.g. phytotoxicity).

[6] = test system: Myzus persicae (green peach aphid); test: Example B6: Myzus persicae feeding activity sachet test, mixed population; assay type: in vivo; conditions: 120 h, 5 days after infestation
Text: Example B6: Activity Against Myzus persicae (Green Peach Aphid)
(Feeding Activity Sachet Test), Mixed Population
Test compounds were applied by pipette into 24 well plates and mixed with Sucrose solution. The plates were closed with a stretched Parafilm. A plastic stencil with 24 holes is placed onto the plate and infested pea seedlings were placed directly on the Parafilm. The infested plate is closed with a gel blotting paper and another plastic stencil and then turned upside down. 5 days after infestation the samples were checked on mortality. Application rate: 12.5 ppm.

[7] = test system: Myzus persicae (green peach aphid); test: Example B7: Myzus persicae systemic/feeding activity, curative, mixed population (pea seedlings); assay type: in vivo; conditions: 144 h, systemic, 6 days after introduction, read-out: activity (mortality and special effects on the plant)
Text: Example B7: Activity Against Myzus persicae (Green Peach Aphid)
(Systemic/Feeding Activity, Curative), Mixed Population
Roots of pea seedlings, infested with an aphid population of mixed ages, were placed directly in the test solutions. 6 days after introduction, samples were checked for mortality and special effects on the plant.

[8] = test system: Anopheles stephensi (Indian malaria mosquito); test: Example B10: Anopheles stephensi adult females on treated tissue culture plates; assay type: in vivo; conditions: application rate 200 ppm in ethanol; after 48 h
Experimental: Example B10: Activity Against Anopheles stephensi (Indian Malaria Mosquito)
Test solutions, at an application rate of 200 ppm in ethanol, were applied to 12-well tissue culture plates. Once the deposits were dry, five, two to five day old adult female Anopheles stephensi were added to each well, and sustained with a 10% sucrose solution in a cotton wool plug. Assessment of knockdown was made one hour after introduction, and mortality was assessed at 24 and 48 hours after introduction.

[9] = test system: Euschistus heros (neotropical brown stink bug); test: Example B8: Euschistus heros on sprayed soybean leaf; assay type: in vivo; conditions: 120 h, N-2 nymphs, 5 days after infestation
Experimental: Example B8: Activity Against Euschistus heros (Neotropical Brown Stink Bug)
Soybean leaf on agar in 24-well microtiter plates were sprayed with aqueous test solutions prepared from 10′000 ppm DMSO stock solutions. After drying the leaf were infested with N-2 nymphs. The samples were assessed for mortality 5 days after infestation.

SMILES: CCS(=O)(=O)c1cccnc1-c1cn2nc(C(F)(F)F)sc2n1 [Compound P2, 6-(3-ethylsulfonyl-2-pyridyl)-2-(trifluoromethyl)imidazo[2,1-b][1,3,4]thiadiazole]
- mortality at 400 ppm [1]: > 80%
- mortality at 12.5 ppm [2]: ≥ 80%
- mortality at 400 ppm [3]: > 80%
- mortality at 400 ppm [4]: > 80%
- mortality at 400 ppm [5]: > 80%
- mortality at 12.5 ppm [6]: ≥ 80%
- mortality at 24 ppm [7]: ≥ 80%
- control of Anopheles stephensi [8]: at least 80%

SMILES: CCS(=O)(=O)c1cc(C(F)(F)F)cnc1-c1nc2sc(C(F)(F)F)nn2c1C [Compound P3, 6-[3-ethylsulfonyl-5-(trifluoromethyl)-2-pyridyl]-5-methyl-2-(trifluoromethyl)imidazo[2,1-b][1,3,4]thiadiazole]
- mortality at 400 ppm [1]: > 80%
- mortality at 400 ppm [3]: > 80%
- mortality at 400 ppm [4]: > 80%
- mortality at 400 ppm [5]: > 80%
- mortality at 12.5 ppm [6]: ≥ 80%

SMILES: CCS(=O)(=O)c1cc(C(F)(F)F)cnc1-c1cn2nc(C(F)(F)F)sc2n1 [Compound P4]
- mortality at 400 ppm [1]: > 80%
- mortality at 400 ppm [3]: > 80%
- mortality at 400 ppm [4]: > 80%

SMILES: CCS(=O)(=O)c1cccnc1-c1nc2sc(C(F)(F)F)nn2c1C [Compound P5]
- mortality at 400 ppm [1]: > 80%
- mortality at 400 ppm [3]: > 80%
- mortality at 400 ppm [5]: > 80%
- mortality at 24 ppm [7]: ≥ 80%

- melting point: 110 to 112 °C
SMILES: CCSc1cc(C(F)(F)F)cnc1-c1cn2nc(C(F)(F)C(F)(F)F)sc2n1 [Compound P6]

SMILES: CC[S+]([O-])c1cc(C(F)(F)F)cnc1-c1cn2nc(C(F)(F)C(F)(F)F)sc2n1 (stereo not shown) [Compound P7]
- mortality at 400 ppm [1]: > 80%
- mortality at 400 ppm [3]: > 80%
- mortality at 400 ppm [4]: > 80%
- mortality at 400 ppm [5]: > 80%
- mortality at 400 ppm [9]: > 80%

SMILES: CCS(=O)(=O)c1cc(C(F)(F)F)cnc1-c1cn2nc(C(F)(F)C(F)(F)F)sc2n1 [Compound P8]
- mortality at 400 ppm [1]: > 80%
- mortality at 12.5 ppm [2]: ≥ 80%
- mortality at 400 ppm [3]: > 80%
- mortality at 400 ppm [4]: > 80%
- mortality at 400 ppm [5]: > 80%
- mortality at 400 ppm [9]: > 80%

SMILES: CCS(=O)(=O)c1cc(C(F)(F)F)cnc1-c1cn2cc(C(F)(F)F)sc2n1 [Compound P9, 6-[3-ethylsulfonyl-5-(trifluoromethyl)-2-pyridyl]-2-(trifluoromethyl)imidazo[2,1-b]thiazole]
- mortality at 400 ppm [1]: > 80%
- mortality at 400 ppm [3]: > 80%
- mortality at 400 ppm [4]: > 80%
- mortality at 400 ppm [5]: > 80%

SMILES: CC[S+]([O-])c1cc(C(F)(F)F)cnc1-c1cn2cc(C(F)(F)F)sc2n1 (stereo not shown) [Compound P10]
- mortality at 400 ppm [1]: > 80%
